| SMILES | melting point |
| --- | --- |
| CN(C)CCn1ccc2ccc(NS(=O)(=O)c3cccc4ccccc34)cc21 [Example 3f, N-[1-(2-Dimethylaminoethyl)-1H-indol-6-yl]-naphthalene-1-sulfonamide] | 139 to 142 °C |
| O=C(CN1CCC(N2C(=O)OCc3ccccc32)CC1)Nc1ccc2c(c1)CCC2=O | 206 to 209 °C |
| CCn1c2ccccc2c2cc(NC(=O)CN3CCC(N4C(=O)OCc5cccc(C)c54)CC3)ccc21.Cl | 229 to 232 °C |
| CN(C)CCc1c[nH]c2ccc(NS(=O)(=O)c3cccc4c(Cl)cccc34)cc12 | 201 to 203 °C |
| Cc1cc2cc(NS(=O)(=O)c3cc(Cl)cc(Cl)c3)ccc2n1CCN(C)C [Example 39e, 3,5-dichloro-N-(1-(2-(dimethylamino)ethyl)-2-methyl-1H-indol-5-yl)-benzenesulfonamide] | 147 to 149 °C |
| Cc1c(S(=O)(=O)Nc2cccc3c2ccn3CCN(C)C)sc2ccc(Cl)cc12 [Example 1d, N-[1-(2-dimethylaminoethyl)-1H-indole-4-yl]-5-chloro-3-methyl-benzo[b]thiophene-2-sulfonamide] | 78 to 80 °C |
| CN(C)CCn1ccc2cc(NS(=O)(=O)Cc3ccccc3)ccc21 [Example 15e, N-[1-(2-dimethylaminoethyl)-1H-indole-5-yl]-1-phenylmethanesulfonamide] | 163 to 166 °C |
| O=C(CN1CCC(N2C(=O)OCc3cccc(Cl)c32)CC1)Nc1ccc2[nH]c3ccccc3c2c1 | 180 °C |
| CN(C)CCn1ccc2c(NS(=O)(=O)c3ccc(-c4ccccc4)cc3)cccc21 [Example 4d, N-[1-(2-dimethylaminoethyl)-1H-indole-4-yl]-4 phenylbenzenesulfonamide] | 137 to 140 °C |
| CCN(CC)CCCc1c[nH]c2ccc(NS(=O)(=O)c3sc4ccc(Cl)cc4c3C)cc12 [Example 43c, N-[3-(3-diethylaminopropyl)-1H-indol-5-yl]-5-chloro-3-methylbenzo[b]thiophene-2-sulphonamide] | 156 to 158 °C |
| Cc1cccc2c1N(C1CCN(CC(=O)Nc3ccc4c(c3)-c3ccccc3C4=O)CC1)C(=O)OC2.Cl | 233 to 236 °C |
| O=S(=O)(Nc1ccc2[nH]cc(CCN3CCOCC3)c2c1)c1cccc2ccccc12 | 218 to 220 °C |
| CN(C)CCn1ccc2cc(NS(=O)(=O)c3ccc4ccccc4c3)ccc21 | 54 to 57 °C |
| Cc1cc2cc(NS(=O)(=O)c3cccc4ccccc34)ccc2n1CCN(C)C [Example 34e, N-(1-(2-(dimethylamino)ethyl)-2-methyl-1H-indol-5-yl)-naphthalene-1-sulfonamide] | 183 to 184 °C |
| CN(C)CCn1ccc2cc(NS(=O)(=O)c3csc4ccccc34)ccc21 [Example 42e, N-(1-(2-(dimethylamino)ethyl)-1H-indol-5-yl)benzo[b]thiophene-3-sulfonamide] | 61 to 72 °C |
| CCN(CC)CCn1ccc2cc(NS(=O)(=O)c3c(Cl)nc4sccn34)ccc21 [Example 27e, N-[1-(2-diethylaminoethyl)-1H-indole-5-yl]-6-chloroimidazo[2,1-b]thiazole-5-sulfonamide] | 68 to 70 °C |
| O=S(=O)(Nc1ccc2c(ccn2CCN2CCCC2)c1)c1cccc2ccccc12 [Example 17e, N-[1-(2-pyrrolidine-1-yl-ethyl)-1H-indole-5-yl]-naphthalene-1-sulfonamide] | 186 to 189 °C |
| Cc1ccc2c(c1)COC(=O)N2C1CCN(CC(=O)Nc2ccc3c(c2)C(O)c2ccccc2-3)CC1.Cl (stereo not shown) | 196 to 199 °C |
| Cc1ccc2c(c1)COC(=O)N2C1CCN(CC(=O)Nc2ccc3c(c2)-c2ccccc2C3=O)CC1 | 237 to 239 °C |
| O=S(=O)(Nc1ccc2c(ccn2CCCN2CCCCC2)c1)c1ccc2ccccc2c1 | 92 to 108 °C |
| Cl.O=C(CN1CCC(N2C(=O)OCc3ccccc32)CC1)Nc1cccc2c1-c1ccccc1C2=O | 270 to 273 °C |
| Cl.O=C(CN1CCC(N2C(=O)OCc3cc(Cl)ccc32)CC1)Nc1ccccc1C(=O)c1ccccc1 | 167 to 178 °C |
| Cc1c(S(=O)(=O)Nc2ccc3c(c2)cc(C)n3CCN(C)C)sc2ccc(Cl)cc12 [Example 32e, 5-chloro-N-(1-(2-(dimethylamino)ethyl)-2-methyl-1H-indol-5-yl)-3-methylbenzo[b]thiophene-2-sulfonamide] | 203 to 205 °C |
| CCN(CC)CCc1c[nH]c2ccc(NS(=O)(=O)/C=C/c3ccccc3)cc12 | 125 to 130 °C |
| Cl.O=C(CN1CCC(N2C(=O)OCc3ccccc32)CC1)Nc1ccc(C(F)(F)F)cc1 | 276 to 284 °C |
| Cc1ccc2c(c1)COC(=O)N2C1CCN(CC(=O)Nc2ccc(C3CCCCC3)cc2)CC1 | 155 to 157 °C |

| SMILES | melting point |
| --- | --- |
| CN(C)CCn1ccc2cc(NS(=O)(=O)c3cccc4cccnc34)ccc21 [Example 6e, N-[1-(2-dimethylaminoethyl)-1H-indole-5-yl]-quinoline-8-sulfonamide] | 161 to 164 °C |
| Cc1cccc2c1N(C1CCN(CC(=O)Nc3ccc(C(=O)c4ccccc4)cc3)CC1)C(=O)OC2.Cl | 217 °C |
| O=S(=O)(CCc1cccc2ccccc12)Nc1ccc2c(ccn2CCCN2CCCCC2)c1 [Example 48e, 2-(naphth-1-yl)-N-(1-(3-(piperidin-1-yl)propyl)-1H-indol-5-yl)ethanesulfonamide] | 59 to 61 °C |
| CCN(CC)CCc1c[nH]c2ccc(NS(=O)(=O)c3ccc4ccccc4c3)cc12 | 134 to 136 °C |
| CN1CCN(CCc2c[nH]c3ccc(NS(=O)(=O)c4cccc5c(Cl)cccc45)cc23)CC1 [Example 53c, N-[3-(4-methylpiperazin-1-yl)ethyl-1H-indol-5-yl]-5-chloronaphthalene-1-sulphonamide] | 246 to 249 °C |
| CN1CCC(c2c[nH]c3ccc(NS(=O)(=O)c4cccc5ccccc45)cc23)CC1.Cl [Example 13c, N-[3-(1-methylpiperidin-4-yl)-1H-indol-5-yl]naphthalene-1-sulphonamide hydrochloride] | 212 °C (dec.) |
| O=S(=O)(Nc1ccc2c(ccn2CCCN2CCCCC2)c1)c1ccc(Oc2ccccc2)cc1 [Example 49e, 4-phenoxy-N-(1-(3-(piperidin-1-yl)propyl)-1H-indol-5-yl)benzenesulfonamide] | 64 to 66 °C |
| O=C(CN1CCC(N2C(=O)OCc3ccccc32)CC1)Nc1cccc2c1-c1ccccc1C2O (stereo not shown) | 209 to 210 °C |
| CCn1c2ccccc2c2cc(NC(=O)CN3CCC(N4C(=O)OCc5cc(Cl)ccc54)CC3)ccc21.Cl | 265 to 268 °C |
| Cc1cccc2c1N(C1CCN(CC(=O)Nc3ccc(C4CCCCC4)cc3)CC1)C(=O)OC2.Cl | 249 to 253 °C |
| Cc1cccc2c1N(C1CCN(CC(=O)Nc3ccccc3C(=O)c3ccccc3)CC1)C(=O)OC2.Cl | 168 to 176 °C |
| Cc1cc2cc(NS(=O)(=O)c3ccc(Oc4ccccc4)cc3)ccc2n1CCN(C)C [Example 38e, N-(1-(2-(dimethylamino)ethyl)-2-methyl-1H-indol-5-yl)-4-phenoxy-benzenesulfonamide] | 147 to 149 °C |
| CN(C)CCn1ccc2ccc(NS(=O)(=O)c3cc(Cl)cc(Cl)c3)cc21 [Example 8f, N-[1-(2-Dimethylaminoethyl)-1H-indol-6-yl]-3,5-dichlorobenzenesulfonamide] | 150 to 159 °C |
| CCCN(CCC)CCc1c[nH]c2ccc(NS(=O)(=O)c3sc4ccc(Cl)cc4c3C)cc12 | 90 to 95 °C |
| Cc1c(S(=O)(=O)Nc2ccc3[nH]cc(CCN(C)C)c3c2)sc2ccc(Cl)cc12 [Example 7c, N-[3-(2-dimethylaminoethyl)-1H-indol-5-yl]-5-chloro-3-methylbenzo[b]thiophene-2-sulphonamide] | 226 to 227 °C |
| Cc1c(S(=O)(=O)Nc2ccc3c(ccn3CCCN3CCCCC3)c2)sc2ccc(Cl)cc12 [Example 43e, 5-chloro-3-methyl-N-(1-(3-(piperidin-1-yl)propyl)-1H-indol-5-yl)benzo[b]thiophene-2-sulfonamide] | 82 to 92 °C |
| CN1CCC(c2c[nH]c3ccc(NS(=O)(=O)c4ccc(-c5ccccc5)cc4)cc23)CC1 [Example 15c, N-[3-(1-methylpiperidin-4-yl)-1H-indol-5-yl]-4-phenylbenzenesulphonamide] | 247 to 248 °C |
| Cl.Cn1c2ccccc2c2cc(NC(=O)CN3CCC(N4C(=O)OCc5ccccc54)CC3)ccc21 | 191 to 193 °C |
| CN(C)CCn1ccc2cc(NS(=O)(=O)c3ccc([N+](=O)[O-])cc3)ccc21 [Example 25e, N-[1-(2-dimethylaminoethyl)-1H-indole-5-yl]-4-nitrobenzenesulfonamide] | 60 to 64 °C |
| CN(C)CCn1ccc2cc(NS(=O)(=O)c3cccc4ccccc34)ccc21 [Example 3e, N-[1-(2-dimethylaminoethyl)-1H-indole-5-yl]-naphthalene-1-sulfonamide] | 179 to 181 °C |
| CN1CC=C(c2cn(S(=O)(=O)C3CCCCC3)c3ccc([N+](=O)[O-])cc23)CC1 [Example 1h, 1-Cyclohexanesulfonyl-3-(1-methyl-1,2,3,6-tetrahydropyridine-4-yl)-5-nitro-1H-indole] | 155 to 160 °C |
| Cc1cc2cc(NS(=O)(=O)c3c(Cl)nc4sccn34)ccc2n1CCN(C)C [Example 35e, 6-chloro-N-(1-(2-(dimethylamino)ethyl)-2-methyl-1H-indol-5-yl)imidazo[2,1-b]thiazole-5-sulfonamide] | 182 to 183 °C |
| Cc1cc2cc(NS(=O)(=O)c3csc4ccccc34)ccc2n1CCN(C)C [Example 40e, N-(1-(2-(dimethylamino)ethyl)-2-methyl-1H-indol-5-yl)benzo[b]thiophene-3-sulfonamide] | 167 to 169 °C |
| Cc1ccc2c(c1)N(C1CCN(CC(=O)Nc3ccc4c(c3)-c3ccccc3C4O)CC1)C(=O)OC2 (stereo not shown) | 136 °C |
| CN(C)CCn1ccc2cc(NS(=O)(=O)c3cc(Cl)cc(Cl)c3)ccc21 [Example 12e, N-[1-(2-dimethylaminoethyl)-1H-indole-5-yl]-3,5-dichlorobenzenesulfonamide] | 124 to 126 °C |
| O=C(CN1CCC(N2C(=O)OCc3ccc(Cl)cc32)CC1)Nc1ccc2oc3ccccc3c2c1 | 237 °C |

From patent publication US20070059364A1, “Active substance combination comprising a compound with npy receptor affinity and a compound with 5-ht6 receptor affinity” (Laboratorios Del Dr. Esteve S.A., priority 2003, published 2007)
